Source: patent publication US12053465B2, “KCC2 expression enhancing compounds and uses thereof” (Whitehead Institute for Biomedical Research, priority 2017, dated 2024)

Assays:
Mecp2 mutant mice [1] = test: Plethysmograph breathing measurement in Mecp2 mutant mouse model of RTT; type: in vivo; settings: male Mecp2 mutant mice; daily injection, two weeks; vs DMSO- or EtOH-injected control
Experimental: (§1) We assessed the in vivo efficacy of KEECs by treating RTT disease-related symptoms such as breathing pauses and reduced locomotion (58) in a Mecp2 mutant mouse model of RTT. […] Plethysmograph and locomotion measurements were made in 4-6 week-old male Mecp2 mutant animals as a pre-treatment control time point and were then injected daily with KEECs KW-2449 or Piperine. Injection of the solvent DMSO or ethanol (EtOH) served as vehicle controls (FIG. 15A). The same two behavioral measurements in vehicle or KEEC-injected Mecp2 mutant animals were performed again two weeks after the start of daily injections. Each animal's ‘after injection’ data were compared to the ‘before injection’ level to assess behavioral changes.
Male Mecp2 mutant mice (Mecp2^−/y, e.g. the Bird model) between 4-12 weeks of age were used for the in vivo experiments. Subjects were divided into drug treated KO (Piperine/KW-2449), and vehicle treated KO (EtOH/DMSO) groups. Animals were randomly assigned to treatment arms with approximately equivalent numbers in each group. […]
A full body plethysmograph chamber (EMKA Inc, PA) was used to measure breathing patterns. […] For each test, the subject was left in the chamber for 20 minutes, afterwards its breath pattern was recorded for the next 20 minutes, and the estimated amplitude modulation index (eAMI) was calculated from the breath trace to label breath pauses automatically. […]

Mecp2 mutant mice [2] = test: Locomotion (infrared beam break) in Mecp2 mutant mouse model of RTT; type: in vivo
Experimental: as §1
Male Mecp2 mutant mice (Mecp2^−/y, e.g. the Bird model) between 4-12 weeks of age were used for the in vivo experiments. Subjects were divided into drug treated KO (Piperine/KW-2449), and vehicle treated KO (EtOH/DMSO) groups. Animals were randomly assigned to treatment arms with approximately equivalent numbers in each group.
KW-2449 stock solution was prepared at 10 mg/ml with DMSO, and Piperine stock solution at 30 mg/ml with EtOH. 20 μl of stock solution were diluted with 1 ml saline for injection. Daily drug treatments or sham injections were performed on both groups between P28 and P56, for at least two weeks, as Mecp2 mutant mice start to show symptoms around P28 and die around P60. Both following tests were performed on both groups of mice before the injections start, and repeated at the end of the injection period. The animals' performance was then compared before and after drug/vehicle injections.
To measure the subjects' nighttime locomotion, a 1-D infrared light-beam frame (ActiMot, TSE-systems, MO) was used. Animals were single-housed in new cages with the same setup as their home cages. The infrared monitor was set up for each cage and the beam crossings was recorded between 17:00 and 9:00 the next morning, where the lights were turned off between 19:00 and 7:00. The average beam crossing frequency during the night (21:00-5:00) was used as the subject's activity score, and the average beam crossing frequency after lights on (7:00-9:00) was used as the subject's day time activity score. The time periods where the mouse is stationary for >5 minutes are discarded to reduce artifact caused by the mouse sleeping. As we look at both day-time and night-time locomotion, a bonferroni correction with repeated comparison number of 2 was applied. All behavioral analyses were performed by experimenters who were blind to the treatment condition.

human RTT neurons = test: Gramicidin-perforated patch recording of EGABA in cultured human RTT neurons; type: cell-based
immature mouse neurons = test: Gramicidin-perforated patch recording of EGABA in DIV6-7 immature mouse neurons; type: cell-based

O=C(c1ccc(/C=C/c2n[nH]c3ccccc23)cc1)N1CCNCC1 [KW-2449, (E)-(4-(2-(1H-indazol-3-yl)vinyl)phenyl)(piperazin-1-yl)methanone]
frequency of breathing pauses (Mecp2 mutant mice [1]): significantly reduced the frequency of breathing pauses
night-time locomotion (infrared beam break frequency in home cage) (Mecp2 mutant mice [2]; Mecp2 mutant animals, vs DMSO control): significantly increased night-time locomotion
locomotive activities (Mecp2 mutant mice [2]; male Mecp2 mutant mice, daily injection, two weeks, vs DMSO- or EtOH-injected control): remarkable increase in locomotive activities
shift in EGABA (human RTT neurons; RTT neurons transfected with KCC2 shRNA): failed to hyperpolarize the EGABA
shift in EGABA (human RTT neurons; cultured human RTT neurons, DMSO about −50 mV, WT −70 mV): significant hyperpolarizing shift in EGABA to levels comparable to WT neurons
EGABA after treatment (immature mouse neurons; DIV6-7 immature mouse neurons, untreated about −50 mV): about −70 mV
significant hyperpolarizing shift in EGABA (immature mouse neurons; DIV6 cultured immature mouse neurons): induces significant hyperpolarizing shift in EGABA
